Experimental data taken from paper PMC4861708 (Frontiers in Cell and Developmental Biology, 2016).
Where a SMILES comes first, the peptide text is derived from it. [ ]: non-standard residue; d: D form. The star is where a group is joined. Orn(α-tetramethylguanidino) = CN(C)C(=N[C@@H](CCCN)C(=O)*)N(C)C; Orn = NCCC[C@H](N)C(=O)O

Key:
HeLa cells [1] = experiment: in vitro; type: cell-based; conditions: 24 h
HeLa cells [2] = experiment: Flow cytometry, endocytosis inhibition with dynasore; type: cell-based; conditions: dynasore 0.2 mmol/L 45 min, peptide 40 μmol/L 30 min
Procedure: Fresh colorless medium (150 μL) supplemented with either dynasore (0.2 mmol/L) dissolved in DMSO (final concentration of 0.2% v/v) or DMSO (0.2% v/v) as vehicle control was added. After 45 min (37°C) the supernatant was replaced by fresh medium supplemented with either dynasore or DMSO at the same concentrations (144 μL), Cf-labeled peptide added (6 μL, 1 mmol/L in water), and incubated (30 min, 37°C). Cells were fixed and stained with Hoechst 33342 as described above.
HeLa cells (50,000 for endocytosis inhibition and 70,000 for uptake kinetics) suspended in DMEM/F-12 medium (300 μL; see above) were seeded into 48-well plates (PS, sterile, flat bottom) and incubated (23 ± 1 h) using the conditions described above. Cells were washed twice with PBS (300 μL/well) and fresh medium was added (144 μL).
Cell cultures were prepared and incubated in the presence of dynasore, as described for microscopy. Cells were washed, treated with trypsin, and fixed as described above, dissolved in FACS buffer, and analyzed the same day.

E. coli DSM 1103 = experiment: Transmission electron microscopy, morphological changes; type: cell-based, Escherichia coli; conditions: 1 h
Procedure: Peptide-bacteria mixtures were fixed (2% glutaraldehyde, 5 mmol/L CaCl2, 10 mmol/L MgCl2 in 0.1 mol/L sodium cacodylate buffer, pH 7.4) overnight at 4°C. […] Samples were rinsed with distilled water (5 × 10 min), incubated with aqueous uranylacetate (0.5% w/v) for 1 h at 4°C, washed with distilled water (3 × 10 min), and embedded in Epon. The hardened blocks were sectioned (50 nm) on a UCT ultramicrotome (Leica, Vienna, Austria), stained with uranyl acetate and lead citrate on an AC20 system (Leica), and visualized at a Tecnai 12 electron microscope (FEI, Eindhoven, The Netherlands) at 80 kV. Morphological effects were quantified on average for 25 cells per condition.

[3] = test system: Primary rat cardiomyocytes; experiment: in vitro; type: cell-based; conditions: 24 h
in vitro = type: cell-based, rat; conditions: rat

Compound: CC[C@H](C)[C@H](NC(=O)[C@H](CCCN)N=C(N(C)C)N(C)C)C(=O)N[C@@H](CCCN)C(=O)N[C@H](C(=O)N[C@@H](CCCN)C(=O)N[C@@H](CCCNC(=N)N)C(=O)N1CCC[C@H]1C(=O)N[C@H](C(=O)N[C@@H](Cc1ccc(O)cc1)C(=O)N[C@@H](CCCN)C(=O)N1CCC[C@H]1C(=O)N[C@@H](CCCNC(=N)N)C(=O)N1CCC[C@H]1C(=O)N[C@@H](CCCNC(=N)N)C(=O)N1CCC[C@H]1C(=O)N1CCC[C@H]1C(=O)N[C@@H](Cc1c[nH]cn1)C(=O)N1CCC[C@H]1C(=O)N[C@@H](CCCNC(=N)N)C(=O)N[C@@H](CC(C)C)C(=O)O)C(C)C)[C@@H](C)CC [Api795, gu-O(IO)2RPVYOPRPRPPHPRL-OH] ({Orn(α-tetramethylguanidino)}-I[Orn]I[Orn]RPVY[Orn]PRPRPPHPRL-OH)
- IC50 on cell viability (HeLa cells [1]): >0.6 g/L
- Drop of GeoMean fluorescence (uptake) in the presence of dynasore vs vehicle control (HeLa cells [2]): 80%
- Cell: r, ruptured (E. coli DSM 1103; 8 µg/mL): 0%
- DNA/Ribosomes relocalized (E. coli DSM 1103; 8 µg/mL): 0%
- Fragments: +++, long and thick (E. coli DSM 1103; 8 µg/mL): 0%
- Fragments: ++, long and thin (E. coli DSM 1103; 8 µg/mL): 23%
- Fragments: +, small and thin (E. coli DSM 1103; 8 µg/mL): 63%
- Fragments: -, no (E. coli DSM 1103; 8 µg/mL): 13%
- Fragments: LV, large vesicles (E. coli DSM 1103; 8 µg/mL): 0%
- Membrane: i, intact (E. coli DSM 1103; 8 µg/mL): 3%
- Membrane: w, wrinkled (E. coli DSM 1103; 8 µg/mL): 97%
- Vesicle release weak (E. coli DSM 1103; 8 µg/mL): 30%
- Cell: r, ruptured (E. coli DSM 1103; 32 µg/mL): 0%
- DNA/Ribosomes relocalized (E. coli DSM 1103; 32 µg/mL): 0%
- Fragments: +++, long and thick (E. coli DSM 1103; 32 µg/mL): 0%
- Fragments: ++, long and thin (E. coli DSM 1103; 32 µg/mL): 10%
- Fragments: +, small and thin (E. coli DSM 1103; 32 µg/mL): 57%
- Fragments: -, no (E. coli DSM 1103; 32 µg/mL): 33%
- Fragments: LV, large vesicles (E. coli DSM 1103; 32 µg/mL): 0%
- Membrane: i, intact (E. coli DSM 1103; 32 µg/mL): 7%
- Membrane: w, wrinkled (E. coli DSM 1103; 32 µg/mL): 93%
- Vesicle release weak (E. coli DSM 1103; 32 µg/mL): 43%
- Cell: r, ruptured (E. coli DSM 1103; 128 µg/mL): 0%
- DNA/Ribosomes relocalized (E. coli DSM 1103; 128 µg/mL): 0%
- Fragments: +++, long and thick (E. coli DSM 1103; 128 µg/mL): 0%
- Fragments: ++, long and thin (E. coli DSM 1103; 128 µg/mL): 30%
- Fragments: +, small and thin (E. coli DSM 1103; 128 µg/mL): 53%
- Fragments: -, no (E. coli DSM 1103; 128 µg/mL): 17%
- Fragments: LV, large vesicles (E. coli DSM 1103; 128 µg/mL): 0%
- Membrane: i, intact (E. coli DSM 1103; 128 µg/mL): 17%
- Membrane: w, wrinkled (E. coli DSM 1103; 128 µg/mL): 83%
- Vesicle release weak (E. coli DSM 1103; 128 µg/mL): 47%
- Cell: r, ruptured (E. coli DSM 1103; 512 µg/mL): 0%
- DNA/Ribosomes relocalized (E. coli DSM 1103; 512 µg/mL): 30%
- Fragments: +++, long and thick (E. coli DSM 1103; 512 µg/mL): 0%
- Fragments: ++, long and thin (E. coli DSM 1103; 512 µg/mL): 37%
- Fragments: +, small and thin (E. coli DSM 1103; 512 µg/mL): 63%
- Fragments: -, no (E. coli DSM 1103; 512 µg/mL): 0%
- Fragments: LV, large vesicles (E. coli DSM 1103; 512 µg/mL): 0%
- Membrane: i, intact (E. coli DSM 1103; 512 µg/mL): 33%
- Membrane: w, wrinkled (E. coli DSM 1103; 512 µg/mL): 67%
- Vesicle release weak (E. coli DSM 1103; 512 µg/mL): 60%
- IC50 on cell viability [3]: >0.6 g/L
- viability at 24 h, 0.6 g/L (in vitro): 83 ± 4%
